According to patent publication US11999739B2, “Antimicrobials methods of making and using the same” (BIOVERSYS AG, priority 2016, dated 2024):

Tests used:
[1] = system: Escherichia coli strain ATCC25922; experiment: Standard microdilution MIC assay, E. coli; type: cell-based
Method in brief: (§1)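 Broth microdilution per CLSI M7-A8 guidelines, with reference-strain quality control run in the same design; MIC determined per strain. Activity scored +/− against a 16 micrograms/mL cutoff.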

[2] = system: Staphylococcus aureus (S. aureus) 11540 strain; experiment: Standard microdilution MIC assay, S. aureus; type: cell-based
Method in brief: as §1

SMILES | MIC [1] [µg/mL] | MIC [2] [µg/mL]
N=C(CF)NCC[C@@H]1COC[C@@H](c2ccc(-n3cc4cc(-c5cc(CCC[C@@H](N)C(F)(F)F)cc(Cl)c5F)[nH]c4nc3=O)cc2)N1 [Compound 67] | > 16 | > 16
C=C[C@@H](N)CCCc1cc(Cl)c(F)c(-c2cc3cn(-c4ccc(CN[C@@H](C=C)CCNC(=N)CF)cc4)c(=O)nc3[nH]2)c1 [Compound 37] | ≤ 16 | ≤ 16
CC(=N)NCC[C@@H]1CCC[C@@H](c2ccc(-n3cc4cc(-c5cc(CCC[C@@H](N)C(F)F)cc(Cl)c5F)[nH]c4nc3=O)cc2)N1 [Compound 139] | ≤ 16 | ≤ 16
CC(=N)NCC[C@H](CO)NCc1ccc(-n2cc3cc(-c4cc(CCC[C@@H](N)CF)cc(Cl)c4F)[nH]c3nc2=O)cc1 [Compound 100] | ≤ 16 | ≤ 16
C=C[C@@H](CCNC(C)=N)N[C@@H](C)c1ccc(-n2cc3cc(-c4cc(CCC[C@@H](N)C5CC5)cc(Cl)c4F)[nH]c3nc2=O)cc1 [Compound 164] | ≤ 16 | ≤ 16
C=C[C@@H](N)CCCc1cc(Cl)c(F)c(-c2cc3cn(-c4ccc(CN[C@H](C=C)CCNC(=N)CF)cc4)c(=O)nc3[nH]2)c1 [Compound 38] | ≤ 16 | ≤ 16
C=C[C@@H](CCNC(C)=N)NCc1ccc(-n2cc3cc(-c4cc(CCC[C@H](C)N)cc(Cl)c4F)[nH]c3nc2=O)cc1 [Compound 14] | ≤ 16 | ≤ 16
C=CCN(CC[C@@H]1CCC[C@@H](c2ccc(-n3cc4cc(-c5cc(CCC[C@H](C)N)cc(Cl)c5F)[nH]c4nc3=O)cc2)N1C)C(C)=N [Compound 180] | ≤ 16 | ≤ 16
CSC[C@@H](CCNC(=N)CF)NCc1ccc(-n2cc3cc(-c4cc(CCC[C@H](C)N)cc(Cl)c4F)[nH]c3nc2=O)cc1 [Compound 88] | ≤ 16 | ≤ 16
C=CC(CCNC(=N)COC)NCc1ccc(-n2cc3cc(-c4cc(CCC[C@H](C)N)cc(Cl)c4F)[nH]c3nc2=O)cc1 (stereo partly drawn) [Compound 34] | ≤ 16 | ≤ 16
C[C@H](N)CCCc1cc(Cl)c(F)c(-c2cc3cn(-c4ccc([C@@H]5COC[C@@H](CCNC(=N)CF)N5)cc4)c(=O)nc3[nH]2)c1 [Compound 75] | ≤ 16 | ≤ 16
C[C@H](N)CCCc1cc(Cl)c(F)c(-c2cc3cn(-c4ccc([C@@H]5CNC[C@H](CCNC(=N)CF)O5)cc4)c(=O)nc3[nH]2)c1 [Compound 28] | ≤ 16 | ≤ 16
CC(=N)NCC[C@H](CO)NCc1ccc(-n2cc3cc(-c4cc(CCC[C@@H](N)C5CC5)cc(Cl)c4F)[nH]c3nc2=O)cc1 [Compound 79] | ≤ 16 | ≤ 16
CC(=N)NCCCN[C@@H](C)c1ccc(-n2cc3cc(-c4cc(CCC[C@@H](N)C(F)(F)F)cc(Cl)c4F)[nH]c3nc2=O)cc1 [Compound 102] | ≤ 16 | ≤ 16
CC(=N)NCC[C@H](CO)N[C@@H](C)c1ccc(-n2cc3cc(-c4cc(CCC[C@@H](N)CO)cc(Cl)c4F)[nH]c3nc2=O)cc1F [Compound 163] | ≤ 16 | ≤ 16
CC(=N)NCC[C@H](CO)NCc1ccc(-n2cc3cc(-c4cc(CCC[C@H](C)N)cc(Cl)c4F)[nH]c3nc2=O)cc1 [Compound 18] | ≤ 16 | ≤ 16
C=CC(CCNC(C)=N)NCc1ccc(-n2cc3cc(-c4cc(CCC(C)(C)CN)cc(Cl)c4F)[nH]c3nc2=O)cc1 (stereo not drawn) [Compound 26] | ≤ 16 | ≤ 16
CC(=N)NCCCN[C@@H](C)c1ccc(-n2cc3cc(-c4cc(CCCC5(N)CC5)cc(Cl)c4F)[nH]c3nc2=O)cc1 [Compound 131] | ≤ 16 | ≤ 16
CC(=N)NCC[C@@H]1CCC[C@@H](c2ccc(-n3cc4cc(-c5cc(CCC[C@@H](N)CF)cc(Cl)c5F)[nH]c4nc3=O)cc2Cl)N1 [Compound 176] | ≤ 16 | ≤ 16
CC(=N)NCC[C@H](CO)NCc1ccc(-n2cc3cc(-c4cc(CCCC5(N)CC5)cc(Cl)c4F)[nH]c3nc2=O)cc1 [Compound 153] | ≤ 16 | ≤ 16
CC(=N)NCC[C@@H]1CCC[C@@H](c2ccc(-n3cc4cc(-c5cc(CCC[C@H](C)NC(C)=N)cc(Cl)c5F)[nH]c4nc3=O)cc2)N1 [Compound 29] | ≤ 16 | ≤ 16
C=CC(CCNC(C)=N)NCc1ccc(-n2cc3cc(-c4cc(CCC[C@@H](N)C(F)(F)F)cc(Cl)c4F)[nH]c3nc2=O)cc1 (stereo partly drawn) [Compound 11] | > 16 | ≤ 16
C=C[C@@H](N)CCCc1cc(Cl)c(F)c(-c2cc3cn(-c4ccc([C@@H]5COC[C@@H](CCNC(C)=N)N5)cc4)c(=O)nc3[nH]2)c1 [Compound 56] | ≤ 16 | ≤ 16
C=C[C@@H](N)CCCc1cc(Cl)c(F)c(-c2cc3cn(-c4ccc([C@H](CO)NCCCNC(C)=N)cc4)c(=O)nc3[nH]2)c1 [Compound 158] | ≤ 16 | ≤ 16
C=C[C@@H](N)CCCc1cc(Cl)c(F)c(-c2cc3cn(-c4ccc([C@@H]5COC[C@@H](CCNC(=N)CF)N5)cc4)c(=O)nc3[nH]2)c1 [Compound 57] | ≤ 16 | ≤ 16
N=C(CF)NCC[C@@H]1COC[C@@H](c2ccc(-n3cc4cc(-c5cc(CCC[C@@H](N)CO)cc(Cl)c5F)[nH]c4nc3=O)cc2)N1 [Compound 55] | ≤ 16 | ≤ 16
CC(=N)NCCCNCc1ccc(-n2cc3cc(-c4cc(CCC(C)(C)CN)cc(Cl)c4F)[nH]c3nc2=O)cc1F [Compound 73] | ≤ 16 | ≤ 16

Continued, values first:

MIC [1] [µg/mL] | MIC [2] [µg/mL] | SMILES
≤ 16 | ≤ 16 | CC(=N)NCC[C@@H]1CCC[C@@H](c2ccc(-n3cc4cc(-c5cc(CCC[C@H](C)N)cc(Cl)c5F)[nH]c4nc3=O)cn2)N1 [Compound 192]
≤ 16 | ≤ 16 | CC(=N)NCC[C@@H]1CCC[C@@H](c2ccc(-n3cc4cc(-c5cc(CCC[C@H](C)N)cc(Cl)c5F)[nH]c4nc3=O)cc2)N1CCF [Compound 364]
≤ 16 | ≤ 16 | C=C[C@H](N)CCCc1cc(Cl)c(F)c(-c2cc3cn(-c4cc(F)c([C@@H]5CCC[C@@H](CCNC(C)=N)N5)c(SC)c4)c(=O)nc3[nH]2)c1 [Compound 274]
≤ 16 | ≤ 16 | COc1ccc(CCC[C@H](C)N)cc1-c1cc2cn(-c3ccc([C@@H]4CCC[C@@H](CCNC(C)=N)N4)cc3)c(=O)nc2[nH]1 [Compound 377]
≤ 16 | ≤ 16 | C=C[C@H](N)CCCc1cc(-c2cc3cn(-c4ccc([C@@H]5CCC[C@@H](CCNC(C)=N)N5CCCF)c(SC)c4)c(=O)nc3[nH]2)cc(C(F)(F)F)c1 [Compound 342]
≤ 16 | ≤ 16 | COC[C@H](N)CCCc1cc(Cl)c(F)c(-c2cc3cn(-c4ccc([C@@H]5CCC[C@@H](CCNC(C)=N)N5)nc4)c(=O)nc3[nH]2)c1 [Compound 358]
≤ 16 | ≤ 16 | C=C[C@H](N)CCCc1cc(-c2cc3cn(-c4ccc([C@@H]5CCC[C@@H](CCNC(C)=N)N5CCCF)cc4)c(=O)nc3[nH]2)cc(C(F)(F)F)c1 [Compound 346]
≤ 16 | ≤ 16 | CC(=N)NCC[C@@H]1CCC[C@@H](c2ccc(-n3cc4cc(-c5cc(CCC[C@@H](N)CF)cc(C(F)(F)F)c5F)[nH]c4nc3=O)cc2OC(F)(F)F)N1 [Compound 225]
≤ 16 | ≤ 16 | COC[C@H](N)CCCc1cc(OC(F)(F)F)c(F)c(-c2cc3cn(-c4ccc([C@@H]5CCC[C@@H](CCNC(C)=N)N5)nc4)c(=O)nc3[nH]2)c1 [Compound 347]
≤ 16 | ≤ 16 | COc1cc(-n2cc3cc(-c4cc(CCC[C@@H](N)CO)cc(C(F)(F)F)c4F)[nH]c3nc2=O)cc(F)c1[C@@H]1CCC[C@@H](CCNC(C)=N)N1 [Compound 323]
≤ 16 | ≤ 16 | C=C[C@H](N)CCCc1cc(Cl)c(F)c(-c2cc3cn(-c4ccc([C@@H]5CCC[C@@H](CCNC(C)=N)N5)c(S(C)(=O)=O)c4)c(=O)nc3[nH]2)c1 [Compound 272]
≤ 16 | ≤ 16 | CSc1cc(-n2cc3cc(-c4cc(CCC[C@@H](N)C5CC5)cc(Cl)c4F)[nH]c3nc2=O)cc(F)c1[C@@H]1CCC[C@@H](CCNC(C)=N)N1CCCF [Compound 338]
≤ 16 | ≤ 16 | CSc1cc(-n2cc3cc(-c4cc(CCC[C@@H](N)C5CC5)cc(C(F)(F)F)c4F)[nH]c3nc2=O)ccc1[C@@H]1CCC[C@@H](CCNC(C)=N)N1 [Compound 251]
≤ 16 | ≤ 16 | C[C@H](N)CCCc1cc(Cl)c(F)c(-c2cc3cn(-c4ccc([C@@H]5CCC[C@@H](CCNC(=N)CCO)N5)cc4)c(=O)nc3[nH]2)c1 [Compound 357]
≤ 16 | ≤ 16 | CSc1cc(-n2cc3cc(-c4cc(CCC[C@H](C)N)cc(Cl)c4F)[nH]c3nc2=O)ccc1[C@@H]1CCC[C@@H](CCNC(C)=N)N1CCCF [Compound 331]
≤ 16 | ≤ 16 | CC(=N)NCC[C@@H]1CCC[C@@H](c2ccc(-n3cc4cc(-c5cc(Cl)cc(CCC[C@H](C)N)c5)[nH]c4nc3=O)cc2)N1 [Compound 370]
≤ 16 | ≤ 16 | CC(=N)NCC[C@@H]1CCC[C@@H](c2ccc(-n3cc4cc(-c5cc(CCC[C@@H](N)CF)cc(C(F)(F)F)c5)[nH]c4nc3=O)cc2)N1 [Compound 204]
≤ 16 | ≤ 16 | CC(=N)NCC[C@@H](NCc1ccc(-n2cc3cc(-c4cc(CCC[C@@H](N)CF)cc(Cl)c4F)[nH]c3nc2=O)cc1)C1CC1 [Compound 218]
≤ 16 | ≤ 16 | C=C[C@@H](CCNC(C)=N)N[C@@H](C)c1ccc(-n2cc3cc(-c4cc(CCC[C@H](C)N)cc(Cl)c4F)[nH]c3nc2=O)cc1F [Compound 183]
≤ 16 | ≤ 16 | COC[C@H](N)CCCc1cc(-c2cc3cn(-c4ccc([C@@H]5CCC[C@@H](CCNC(C)=N)N5)c(OC(F)(F)F)c4)c(=O)nc3[nH]2)cc(C(F)(F)F)c1 [Compound 214]
≤ 16 | ≤ 16 | CSc1cc(-n2cc3cc(-c4cc(CCC[C@H](C)N)cc(C(F)(F)F)c4)[nH]c3nc2=O)ccc1[C@@H]1CCC[C@@H](CCNC(C)=N)N1CCCF [Compound 292]
